Key:
Experiment in all cases: in vitro radiometric kinase assay
Type in all cases: biochemical
Aurora A kinase = target: T1, Aurora A kinase (Homo sapiens, UniProt O14965)
T1 sequence (O14965 122-403): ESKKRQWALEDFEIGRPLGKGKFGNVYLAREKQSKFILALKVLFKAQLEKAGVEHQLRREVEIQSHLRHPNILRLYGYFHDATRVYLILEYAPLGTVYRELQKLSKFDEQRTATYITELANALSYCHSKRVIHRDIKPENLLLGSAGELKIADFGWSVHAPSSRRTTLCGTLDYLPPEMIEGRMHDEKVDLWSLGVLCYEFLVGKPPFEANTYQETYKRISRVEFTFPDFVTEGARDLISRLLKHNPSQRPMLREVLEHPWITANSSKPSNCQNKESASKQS
T1 sequence (Q9ULW0 1-747 partner): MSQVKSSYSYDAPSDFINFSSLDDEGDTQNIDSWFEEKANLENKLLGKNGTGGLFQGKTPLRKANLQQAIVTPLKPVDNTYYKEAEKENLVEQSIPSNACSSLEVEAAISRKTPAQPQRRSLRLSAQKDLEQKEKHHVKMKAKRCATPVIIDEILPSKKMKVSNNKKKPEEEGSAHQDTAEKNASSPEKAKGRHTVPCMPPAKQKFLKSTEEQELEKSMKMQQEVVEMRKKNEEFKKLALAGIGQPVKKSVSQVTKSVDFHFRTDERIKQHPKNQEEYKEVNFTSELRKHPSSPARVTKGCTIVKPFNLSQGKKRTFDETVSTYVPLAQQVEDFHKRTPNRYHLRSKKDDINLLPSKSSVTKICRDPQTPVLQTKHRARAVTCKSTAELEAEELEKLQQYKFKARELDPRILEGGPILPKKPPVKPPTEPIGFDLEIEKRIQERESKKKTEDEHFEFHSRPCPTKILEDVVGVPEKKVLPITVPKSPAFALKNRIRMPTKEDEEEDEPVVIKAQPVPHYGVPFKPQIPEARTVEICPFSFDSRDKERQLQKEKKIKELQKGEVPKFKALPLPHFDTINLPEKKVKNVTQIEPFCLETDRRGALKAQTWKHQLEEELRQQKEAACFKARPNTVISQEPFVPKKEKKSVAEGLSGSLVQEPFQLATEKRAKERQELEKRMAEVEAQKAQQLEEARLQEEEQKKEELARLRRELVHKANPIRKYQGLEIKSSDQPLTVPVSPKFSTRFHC

Cdk1/cyclinB = Cdk1/cyclinB (Homo sapiens, UniProt P06493)
Cdk1/cyclinB, sequence (P06493 whole entry): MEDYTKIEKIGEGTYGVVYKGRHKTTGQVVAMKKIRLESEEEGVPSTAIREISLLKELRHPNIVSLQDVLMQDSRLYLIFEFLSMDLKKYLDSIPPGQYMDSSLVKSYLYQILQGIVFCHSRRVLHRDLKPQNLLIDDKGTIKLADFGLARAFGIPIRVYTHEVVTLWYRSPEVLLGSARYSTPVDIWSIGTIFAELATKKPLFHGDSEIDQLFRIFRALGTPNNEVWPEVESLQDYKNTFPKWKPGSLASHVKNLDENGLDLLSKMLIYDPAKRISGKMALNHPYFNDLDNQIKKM
Cdk1/cyclinB, sequence (P14635 whole entry partner): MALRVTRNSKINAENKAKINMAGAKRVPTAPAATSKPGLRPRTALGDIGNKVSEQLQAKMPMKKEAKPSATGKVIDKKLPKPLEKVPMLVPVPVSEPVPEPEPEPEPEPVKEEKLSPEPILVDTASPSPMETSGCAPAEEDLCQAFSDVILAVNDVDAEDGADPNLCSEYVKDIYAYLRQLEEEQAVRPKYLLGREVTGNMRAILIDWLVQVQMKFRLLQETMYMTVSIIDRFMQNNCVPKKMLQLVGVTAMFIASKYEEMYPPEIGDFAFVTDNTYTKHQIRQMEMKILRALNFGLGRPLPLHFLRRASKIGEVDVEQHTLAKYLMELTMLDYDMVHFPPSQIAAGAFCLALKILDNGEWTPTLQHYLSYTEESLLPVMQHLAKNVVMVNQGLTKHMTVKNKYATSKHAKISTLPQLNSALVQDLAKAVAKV

Aurora B kinase = Aurora B kinase (Xenopus laevis, UniProt Q6DE08)
Aurora B kinase, sequence (Q6DE08 60-361 limits assumed): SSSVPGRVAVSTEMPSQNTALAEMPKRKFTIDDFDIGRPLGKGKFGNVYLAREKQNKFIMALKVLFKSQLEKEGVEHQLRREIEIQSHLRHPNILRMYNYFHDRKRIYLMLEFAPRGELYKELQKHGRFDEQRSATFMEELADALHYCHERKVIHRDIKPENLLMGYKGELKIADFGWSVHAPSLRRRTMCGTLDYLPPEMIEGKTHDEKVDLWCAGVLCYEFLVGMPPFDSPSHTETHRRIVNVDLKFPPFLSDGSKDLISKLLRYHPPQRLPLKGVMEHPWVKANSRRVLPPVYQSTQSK
Aurora B kinase, sequence (O13024 whole entry partner): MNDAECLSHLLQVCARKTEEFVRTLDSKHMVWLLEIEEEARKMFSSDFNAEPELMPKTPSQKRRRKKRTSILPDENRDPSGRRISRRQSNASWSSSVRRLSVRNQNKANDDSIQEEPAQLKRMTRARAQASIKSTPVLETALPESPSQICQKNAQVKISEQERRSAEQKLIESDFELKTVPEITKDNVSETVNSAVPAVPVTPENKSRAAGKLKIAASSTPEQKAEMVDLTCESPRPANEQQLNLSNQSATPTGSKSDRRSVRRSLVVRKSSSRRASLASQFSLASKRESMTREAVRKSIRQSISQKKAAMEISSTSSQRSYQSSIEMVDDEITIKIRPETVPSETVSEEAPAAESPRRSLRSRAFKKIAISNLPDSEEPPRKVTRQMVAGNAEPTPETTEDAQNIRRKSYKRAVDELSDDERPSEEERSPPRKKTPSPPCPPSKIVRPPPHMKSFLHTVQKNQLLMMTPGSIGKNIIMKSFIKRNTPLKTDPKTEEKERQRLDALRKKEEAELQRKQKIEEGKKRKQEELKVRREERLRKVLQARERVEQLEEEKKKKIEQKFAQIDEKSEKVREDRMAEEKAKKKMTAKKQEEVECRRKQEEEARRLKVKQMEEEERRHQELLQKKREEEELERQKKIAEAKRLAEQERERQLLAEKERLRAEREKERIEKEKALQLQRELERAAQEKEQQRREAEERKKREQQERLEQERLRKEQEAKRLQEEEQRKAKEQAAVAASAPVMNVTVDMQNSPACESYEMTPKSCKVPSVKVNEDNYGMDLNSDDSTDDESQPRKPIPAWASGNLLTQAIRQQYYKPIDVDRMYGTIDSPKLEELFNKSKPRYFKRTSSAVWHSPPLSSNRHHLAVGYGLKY

Cdk5/p25 = Cdk5/p25 (Homo sapiens, UniProt Q00535)
Cdk5/p25, sequence (Q00535 whole entry): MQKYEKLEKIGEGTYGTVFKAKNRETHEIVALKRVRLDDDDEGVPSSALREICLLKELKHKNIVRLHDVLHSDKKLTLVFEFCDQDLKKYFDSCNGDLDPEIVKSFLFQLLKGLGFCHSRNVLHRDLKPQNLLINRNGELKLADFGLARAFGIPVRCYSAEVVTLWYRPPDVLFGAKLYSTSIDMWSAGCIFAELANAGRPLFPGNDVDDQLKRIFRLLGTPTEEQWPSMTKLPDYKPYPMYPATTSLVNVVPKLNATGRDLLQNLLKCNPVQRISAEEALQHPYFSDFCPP
Cdk5/p25, sequence (Q15078 2-307 partner): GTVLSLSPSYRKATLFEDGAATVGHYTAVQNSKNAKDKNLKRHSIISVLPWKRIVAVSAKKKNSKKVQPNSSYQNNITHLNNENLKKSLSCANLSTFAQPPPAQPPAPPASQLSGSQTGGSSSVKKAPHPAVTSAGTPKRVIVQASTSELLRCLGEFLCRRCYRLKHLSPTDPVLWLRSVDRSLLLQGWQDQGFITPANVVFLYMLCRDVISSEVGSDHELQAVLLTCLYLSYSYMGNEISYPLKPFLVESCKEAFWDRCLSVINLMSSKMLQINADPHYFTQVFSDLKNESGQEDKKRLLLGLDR

## COc1cc(/C=N/NC(=O)c2sc(N)nc2C)ccc1O [OM137]
Aurora A kinase
  IC50: 21.7 µM
Cdk1/cyclinB
  IC50: ~20 µM
Aurora B kinase
  IC50: 2.4 µM
Cdk5/p25
  IC50: ~20 µM
